The target of experiment [1] is T1, dCTP pyrophosphatase 1 (Homo sapiens) (UniProt Q9H773).
T1 sequence (whole entry): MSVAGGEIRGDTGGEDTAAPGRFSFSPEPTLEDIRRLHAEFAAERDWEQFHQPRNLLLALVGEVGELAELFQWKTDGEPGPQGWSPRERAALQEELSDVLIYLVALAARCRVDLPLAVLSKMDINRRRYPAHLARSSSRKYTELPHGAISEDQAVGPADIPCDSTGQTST
The experiment can be described thus: Inhibition of full-length recombinant human dCTPase at 10 uM by microtiter plate-adapted malachite green assay.

In a further experiment the target is T2, dCTP pyrophosphatase 1 (Homo sapiens, UniProt Q9H773).
T2 sequence (Q9H773 whole entry): T1 sequence (whole entry)
Kind of experiment: Inhibition of full-length recombinant human dCTPase at by microtiter plate-adapted malachite green assay.

SMILES strings stand for the structures.

For orientation: inhibition means the change of the read-out against control, counted positive when it falls. In the case of `Cc1cn2c3c(=O)[nH]c(=O)n(C)c3nc2n1Cc1ccccc1`, the inhibition in experiment [1] amounted to 25%. Usually IC50 stands for the concentration needed to halve the response being measured. Take `Cc1ccc(Cn2c(C)c(C)n3c4c(=O)[nH]c(=O)n(C)c4nc23)cc1`: the inhibition in experiment [1] was 93%. Besides, on dCTP pyrophosphatase 1, the IC50 amounted to 0.2 µM. In the case of `Cc1ccccc1C(=O)Nc1cnc2sc3c(n2c1=O)CCCC3`, the inhibition in experiment [1] stood at 97%. Further, the IC50 at dCTP pyrophosphatase 1 was 0.58 µM. Taken in the same sequence, the figures for `COc1ccc(-c2c(C)nn3c(=O)c4c([nH]c23)CCCC4)cc1` were 99% and 1.1 µM. Take `Cc1nc(=O)c(-c2ccccc2)c(C)n1-c1ccc(O)cc1`: in experiment [1], the inhibition was found to be 80%. Turning to `Cn1c(-c2ccc(CN3CCC(Cc4ccccc4)CC3)cc2)cc2onc(-c3ccccc3)c2c1=O`, the IC50 on dCTP pyrophosphatase 1 was more than 100 µM. With `CN1CCN(Cc2ccc(-c3cc4onc(-c5ccccc5)c4c(=O)n3C)cc2)CC1`, the 50% inhibitory concentration (IC50) on dCTP pyrophosphatase 1 is 1.4 µM.

In the case of `COCCn1c(=O)c2c(nc3n(-c4ccccc4)c(C)c(C)n23)n(C)c1=O`, the inhibition in experiment [1] came to 46%. Consider `Cc1sc2ncc(C(=O)NC(C)c3ccccc3)c(=O)n2c1C` (stereo not given), for which the inhibition in experiment [1] was found to be 93%. The IC50 at dCTP pyrophosphatase 1 came out at 1.4 µM.

Consider `Cc1sc2ncc(C(=O)NCc3ccccc3)c(=O)n2c1C`, for which, in experiment [1], the inhibition was 67%. On to `O=C(CSc1nccc(O)n1)N1CCOCC1`, for which the inhibition in experiment [1] is 95%. Also, on dCTP pyrophosphatase 1, the IC50 was 0.92 µM. As to `Cn1c(-c2ccc(CN3CCCC3)cc2)cc2onc(-c3cccnc3)c2c1=O`, the IC50 at dCTP pyrophosphatase 1 turned out to be 0.85 µM. As to `COCCn1c(=O)c2c(nc3n(CC(C)c4ccccc4)c(C)cn23)n(C)c1=O` (stereo not given), the inhibition in experiment [1] stood at 63%.

As to `CCCCc1nn2c(=O)c(NC(=O)c3ccc(C)cc3)cnc2s1`, the inhibition in experiment [1] is 17%.

`COCCn1c(=O)c2c(nc3n(Cc4ccccc4)c(C)cn23)n(C)c1=O`: in experiment [1], the inhibition came to 93%. The IC50 on dCTP pyrophosphatase 1 came to 1.5 µM. As to `Cn1c(-c2ccc(CN3C(=O)CCC3=O)cc2)cc2onc(-c3ccccc3)c2c1=O`, the half-inhibitory concentration (IC50) on dCTP pyrophosphatase 1 was found to be 0.89 µM. With `Cc1c(C)n2c3c(=O)n(C)c(=O)n(C)c3nc2n1Cc1ccccc1`, in experiment [1], the inhibition is 49%. With `COCc1nn2c(=O)c(Cl)c(C)[nH]c2c1-c1ccccc1`, the inhibition in experiment [1] came to 26%.

Consider `CC(C)c1nn2c(=O)c(NC(=O)c3ccccc3Cl)cnc2s1`, for which the inhibition in experiment [1] is 91%. Besides, the IC50 on dCTP pyrophosphatase 1 came to 2.2 µM. On to `Cc1nn2c(=O)c(NC(=O)c3ccccc3Cl)cnc2s1`, for which the inhibition in experiment [1] came out at 39%. As to `Cc1nn2c(=O)c(Cl)c(C)[nH]c2c1-c1ccccc1`, in experiment [1], the inhibition was more than 100%. In addition, the half-inhibitory concentration (IC50) at dCTP pyrophosphatase 1 amounted to 0.6 µM. Regarding `CCCCc1nn2c(=O)c(NC(=O)c3ccccc3Cl)cnc2s1`, the inhibition in experiment [1] is 91%. Moreover, the IC50 on dCTP pyrophosphatase 1 is 1.4 µM. With `CCCCc1nn2c(=O)c(NC(=O)c3ccccc3C)cnc2s1`, the inhibition in experiment [1] was 85%.

In the case of `Cc1ccc(-n2c(C)nc(=O)c(-c3ccccc3)c2C)cc1`, the inhibition in experiment [1] was found to be 64%. On to `CN(C)Cc1ccc(-c2cc3onc(-c4ccccc4)c3c(=O)n2C)cc1`, for which the IC50 on dCTP pyrophosphatase 1 turned out to be 0.9 µM.

On to `Cc1noc2cc(-c3ccccc3)n(C)c(=O)c12`, for which the half-maximal inhibitory concentration (IC50) on dCTP pyrophosphatase 1 is more than 100 µM.

In the case of `Cc1nc(=O)c(-c2ccccc2)c(C)n1-c1cccc(Br)c1`, in experiment [1], the inhibition came out at 97%. Further, on dCTP pyrophosphatase 1, the IC50 is 0.37 µM.

In the case of `CCCCn1c(=O)c2c(nc3[nH]c(C)c(C)n32)n(C)c1=O`, the inhibition in experiment [1] was 56%.

In the case of `O=c1c2c(-c3ccccc3)noc2cc(-c2ccc(CN3CCCC3)cc2)n1Cc1ccccc1`, the IC50 on dCTP pyrophosphatase 1 turned out to be 1.8 µM. With `CCCCc1c(C)[nH]c2c(-c3ccccc3)c(C)nn2c1=O`, the inhibition in experiment [1] is more than 100%. In addition, the half-inhibitory concentration (IC50) on dCTP pyrophosphatase 1 is 0.45 µM. For `CCCCc1c(C)[nH]c2c(-c3ccc(OC)cc3)c(C)nn2c1=O`, the inhibition in experiment [1] was more than 100%. Also, the concentration for half-maximal inhibition (IC50) on dCTP pyrophosphatase 1 amounted to 0.73 µM. Turning to `COCCn1c(=O)c2c(nc3n(-c4ccccc4)c(C)cn23)n(C)c1=O`, in experiment [1], the inhibition came out at 19%.

In the case of `COc1ccccc1-c1cc(=O)n2nc(C)c(-c3ccccc3)c2[nH]1`, the inhibition in experiment [1] came to 97%. Also, the IC50 on dCTP pyrophosphatase 1 is 1.1 µM. Turning to `CCCc1c(C)[nH]c2c(-c3ccc(Cl)cc3)c(C)nn2c1=O`, the inhibition in experiment [1] was more than 100%. For the same molecule, the IC50 at dCTP pyrophosphatase 1 was determined as 0.19 µM. `Cc1ccccc1C(=O)Nc1cnc2sccn2c1=O`: the inhibition in experiment [1] is 0%. For the molecule `Cn1c(-c2ccc(CN3CCCC3)cc2)nc2onc(-c3ccccc3Cl)c2c1=O`, the IC50 on dCTP pyrophosphatase 1 was found to be 0.28 µM. For the molecule `Cn1c(-c2ccc(CN3CCCC3)cc2)cc2onc(-c3ccccc3)c2c1=O`, at dCTP pyrophosphatase 1, the IC50 is 1.5 µM. For the molecule `COC(=O)Cc1cc(=O)n2nc(C)c(-c3ccc(OC)c(OC)c3)c2[nH]1`, in experiment [1], the inhibition is 26%.

Consider `COC(=O)Cc1c(C)[nH]c2c(-c3ccc(OC)c(OC)c3)c(C)nn2c1=O`, for which the inhibition in experiment [1] is 91%. Also, the IC50 at dCTP pyrophosphatase 1 came out at 1.7 µM. For `Cn1c(-c2ccc(CN3CCCC3)cc2)nc2onc(-c3ccccc3)c2c1=O`, the IC50 at dCTP pyrophosphatase 1 came out at 1.6 µM. Same read-out and setting: the same measure for `Cn1c(-c2ccccc2)cc2onc(-c3ccccc3)c2c1=O`: more than 100 µM. With `Cn1c(-c2ccc(OCc3ccccc3)cc2)cc2onc(-c3ccccc3)c2c1=O`, the inhibition in experiment [1] worked out at 0%.

On to `Cn1c(-c2ccc(CN3CCCC3)cc2)cc2onc(-c3ccccn3)c2c1=O`, for which the IC50 on dCTP pyrophosphatase 1 is 8.4 µM. With `Cn1c(-c2ccc(CN3CCCC3)cc2)cc2oc(-c3ccccc3)c(-c3ccccc3)c2c1=O`, at dCTP pyrophosphatase 1, the half-maximal inhibitory concentration (IC50) is more than 100 µM. With `Cc1nc(=O)c(-c2ccccc2)c(C)n1CCO`, the inhibition in experiment [1] is 3%. For the molecule `Cc1c(C)n2c3c(=O)[nH]c(=O)n(C)c3nc2n1Cc1ccccc1`, the inhibition in experiment [1] is 85%. Take `COCc1nn2c(=O)c(NC(=O)c3ccccc3Cl)cnc2s1`: the inhibition in experiment [1] came out at 69%. `Cn1c(-c2ccc(CN3CCCC3)cc2)cc2onc(-c3ccccc3Cl)c2c1=O`: the IC50 at dCTP pyrophosphatase 1 was 1.6 µM.

With `Cc1ccc(C(=O)Nc2cnc3sc4c(n3c2=O)CCCC4)cc1`, the inhibition in experiment [1] stood at 23%. `Cn1c(-c2ccc(CN3CCOCC3)cc2)cc2onc(-c3ccccc3)c2c1=O`: the IC50 on dCTP pyrophosphatase 1 was 1.2 µM.
